Source: patent publication US20170008888A1 (KYORIN PHARMACEUTICAL CO., LTD., priority 2014, published 2017)

How the values were obtained:
[1] = tested on: TLR4 signaling in primary human umbilical vein endothelial cells; test: Cytokine response to TLR4 agonism (LPS) in primary HUVEC (ELISA); assay type: cell-based; details: for IL-8: 22 hr; for IL-6 response, in words: summary of Table 24
Method: (§1) In this example, the following commercially available inhibitors were tested:
(§2) The results were compared with test compound 61.
(§3) Pooled primary human umbilical vein endothelial cells (HUVEC) were obtained from Lonza (Allendale, N.J.) and maintained in either complete EGM-2 defined media (Lonza) or Medium 200 supplemented with Low Serum Growth Supplement (Life Technologies, Grand Island, N.Y.). Cells at low passage (<5) were seeded at 4e5 cells/ml and allowed to adhere overnight at 37° C. in a humidified atmosphere at 5% CO2. Cells were pre-treated with test compounds for 1 h prior to TLR2 or TLR4 stimulation. To test for the effects of TLR2 agonism, the TLR2 agonist peptide Pam3CysK4 (Santa Cruz Biotechnology, Dallas, Tex.) was used at 10 μg/ml. PHC-SKKK (Enzo Life Sciences, Farmingdale, N.Y.) served as the negative control peptide. To test for the effects of TLR4 agonism, LPS from E. coli 0111:B4 (EMD Millipore, Billerica, Mass.) was used at 100 ng/ml. Cells were incubated for 22 hr, after which the supernatant was collected and analyzed for cytokine concentrations by ELISA (Life Technologies). Absorbance at 450 nm was read using the Wallac 1420 Victor^2 multilabel microplate reader (Perkin Elmer, Waltham, Mass.).

[2] = tested on: TLR2 signaling in primary human umbilical vein endothelial cells; test: Cytokine response to TLR2 agonism (Pam3CysK4) in primary HUVEC (ELISA); assay type: cell-based; details: for IL-8 response to TLR2 (Pam3CysK4) stimulation, in words: summary of Table 22
Excerpt: It has been reported in the literature that that ERK5 mediates TLR2-dependent inflammatory signaling in several cell types including human umbilical vein endothelial cells (HUVEC). See Wilhelmsen et al., J Biol Chem. 2012; 287:26478-94. Wilhelmsen et al. further reported that MEK1 negatively regulates TLR2 signaling in HUVECs, with pharmacological inhibition of MEK1 augmenting (IL-6, G-CSF, GM-CSF) or not changing (IL-8) pro-inflammatory cytokine release in response to TLR2 stimulation.
as §1, §2, §3

[3] = 10 μM inhibitor, +100 ng/ml LPS
[4] = 10 μM inhibitor, No Stimulation
[5] = 5 μM inhibitor, +10 μg/ml PHC-SKKK (negative control peptide), 22 hr
[6] = 5 μM inhibitor, +10 μg/ml Pam3CysK4, 22 hr

| SMILES | IL-8 ([1]; 5 μM inhibitor, +100 ng/ml LPS) [pg/mL] | G-CSF [1, 3] [pg/mL] | IL-6 [1, 3] [pg/mL] | G-CSF [1, 4] [pg/mL] | IL-6 [1, 4] [pg/mL] | IL-6 response, in words [1] | IL-8 [2, 5] [pg/mL] | IL-8 [2, 6] [pg/mL] | IL-8 response to TLR2 (Pam3CysK4) stimulation, in words [2] | IL-8 [1, 3] [pg/mL] | IL-8 ([2]; 10 μM inhibitor, +10 μg/ml PHC-SKKK (negative control peptide), 22 hr) [pg/mL] | IL-8 ([2]; 10 μM inhibitor, +10 μg/ml Pam3CysK4, 22 hr) [pg/mL] | G-CSF ([1]; 5 μM inhibitor, +100 ng/ml LPS) [pg/mL] | IL-6 ([1]; 5 μM inhibitor, +100 ng/ml LPS) [pg/mL] | G-CSF ([1]; 5 μM inhibitor, No Stimulation) [pg/mL] | IL-6 ([1]; 5 μM inhibitor, No Stimulation) [pg/mL] |
| --- | --- | --- | --- | --- | --- | --- | --- | --- | --- | --- | --- | --- | --- | --- | --- | --- |
| O=C(NC[C@H](O)CO)c1ccncc1Nc1ccc(I)cc1F [AS703026] | 1970 ± 126 | 90 ± 13 | 1368 ± 169 | 30 ± 1 | 529 ± 20 | Cytokine augmentation was observed | 0 ± 23 | 732 ± 36 | moderate IL-8 augmentation | – | – | – | – | – | – | – |
| C[S+]([O-])c1ccc(-c2nc(-c3ccncc3)c(-c3ccc(F)cc3)[nH]2)cc1 (stereo not drawn) [SB203580] | – | 318 ± 33 | 112 ± 10 | 7 ± 9 | 18 ± 5 | reduced | – | – | reduced the IL-8 response | 1526 ± 54 | 54 ± 12 | 450 ± 23 | – | – | – | – |
| CCOc1cc(N2CCC(O)CC2)ccc1Nc1ncc2c(n1)N(C)c1ccccc1C(=O)N2C [XMD8-92] | 1249 ± 42 | – | – | – | – | reduced | 0 ± 25 | 199 ± 11 | reduced the IL-8 response | – | – | – | 111 ± 6 | 170 ± 21 | 0 ± 1 | 20 ± 1 |
